Source: publication PMC5362899, “Structural insights into the nucleotide base specificity of P2X receptors” (Scientific Reports, 2017)
Residue numbers refer to the chain shown, from its start.

Tests used:
[1] = biological target: T1, zfP2X4 (ΔP2X4-C) T189V mutant (Danio rerio, UniProt F8W463, N187R/N78K/T189V); experiment: ATR-FTIR difference spectroscopy, residual nucleotide after washing, zfP2X4 T189V; format: binding, zebrafish; details: 10 μM nucleotide, after 15–30 min washing, P-O stretching bands 1250–800 cm−1
T1 construct: EGFP (N); octa-histidine tag (N); made in house; host or cells: Sf9 insect cells
T1 sequence (F8W463 28-365 N78K/N187R/T189V limits assumed): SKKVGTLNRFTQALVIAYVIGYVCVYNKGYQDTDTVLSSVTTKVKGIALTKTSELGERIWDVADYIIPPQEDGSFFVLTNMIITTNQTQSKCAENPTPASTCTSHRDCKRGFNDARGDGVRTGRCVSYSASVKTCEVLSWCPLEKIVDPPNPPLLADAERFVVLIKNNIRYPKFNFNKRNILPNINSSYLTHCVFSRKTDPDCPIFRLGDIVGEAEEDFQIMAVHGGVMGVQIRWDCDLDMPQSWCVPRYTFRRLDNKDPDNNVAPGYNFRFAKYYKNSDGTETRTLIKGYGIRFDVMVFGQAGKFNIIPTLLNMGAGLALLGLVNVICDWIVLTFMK
Source text: (§1) To further investigate the nucleotide binding specificity of zfP2X4, we applied ligand-binding induced difference Attenuated total reflectance (ATR)-Fourier-transform infrared (FTIR) spectroscopy on the WT and conserved threonine mutants (T189S and T189V) of zfP2X4.
(§2) Figure 5 ATR-FTIR spectroscopic analysis of zfP2X4 for the ATP and CTP bindings. (A) The reduction of the ligand binding induced difference spectra in the ΔP2X4-C ^zfWT, ^zfT189S and ^zfT189V mutants around the P-O stretching region (1250–800 cm^−1) after washing treatment for 15–30 min. (B) The residual nucleotides after the washing treatment estimated from the ATR-FTIR analysis in (A).
(§3) The nucleotide binding affinity of zfP2X4 was analyzed by reduction of the band intensity after washing treatment (Fig. 5). The reduction of the P-O stretching bands between 1250–800 cm^−1 was monitored for ATP (Fig. 5A). […]
(§4) The perfusion-induced difference FTIR spectroscopy was performed as similarly to the previous studies. […] ATR-FTIR spectra of the samples were recorded at 25 °C and 2 cm^−1 resolution using a VERTEX 70 spectrometer (Bruker Optics) equipped with a liquid-nitrogen-cooled MCT detector. […] The obtained difference spectra were normalized based on the absolute absorbance of the amide I band at 1653 cm^−1, which well correlates with the quantities of the proteins on the ATR crystals. […]

[2] = biological target: T2, zfP2X4 (ΔP2X4-C) WT (Danio rerio, UniProt F8W463, N187R/N78K); experiment: ATR-FTIR difference spectroscopy, residual nucleotide after washing, zfP2X4 WT; format: binding, zebrafish; details: 10 μM nucleotide, after 15–30 min washing, P-O stretching bands 1250–800 cm−1
T2 construct: EGFP (N); octa-histidine tag (N); made in house; host or cells: Sf9 insect cells
T2 sequence (F8W463 28-365 N78K/N187R limits assumed): T1 sequence (F8W463 28-365 N78K/N187R/T189V limits assumed) with V162T
Source text: as §1, §2, §3, §4

Compound	residual nucleotide binding after washing [1]	residual nucleotide binding after washing [2]
Nc1ncnc2c1ncn2[C@@H]1O[C@H](COP(=O)(O)OP(=O)(O)OP(=O)(O)O)[C@@H](O)[C@H]1O [ATP, Adenosine 5-triphosphate]	10%	~ 80%
Nc1ccn([C@@H]2O[C@H](COP(=O)(O)OP(=O)(O)OP(=O)(O)O)[C@@H](O)[C@H]2O)c(=O)n1 [CTP]	~ 30%	~ 50%
